{"source": "patent US20010034023A1", "about": "“Gene sequence variations with utility in determining the treatment of disease, in genes relating to drug processing” (priority 1999, published 2001)", "origin": "cited, not measured here", "key": {"[1]": {"details": "PDR"}, "[2]": {"details": "high dose"}, "[3]": {"assay": "not given", "remark": "listed apart in the source"}, "[4]": {"tested_on": "hepatitis C virus infection"}, "[5]": {"details": "Alzheimer's patients receiving Cognex"}}, "note": "Counter-ions that a name gives are not always drawn.", "data": [{"molecule": "O=c1[nH]cc(F)c(=O)[nH]1", "note": "[5-fluorouracil]", "values": [{"measurement": "patients with an objective response to the drug", "setting": "advanced colorectal cancer", "result": "20-40%"}, {"measurement": "patients with a complete response (complete tumor disappearance)", "setting": "advanced colorectal cancer, of the objective responders", "result": "1-5%"}, {"measurement": "patients suffering serious gastrointestinal or hematopoietic toxicity", "setting": "up to, depending on the regimen", "result": "20-30%"}]}, {"molecule": "Nc1c2c(nc3ccccc13)CCCC2", "note": "[Cognex, tacrine hydrochloride]", "values": [{"measurement": "patients showing no change or minimal worsening of their disease", "setting": "[1]; Alzheimer's disease patients receiving Cognex", "result": "about 45%"}, {"measurement": "patients minimally improved", "setting": "[1]; [5]", "result": "About 58%"}, {"measurement": "patients much improved", "setting": "[1]; [5]", "result": "about 2%"}]}, {"molecule": "CC(=O)Nc1ccc(O)cc1", "note": "[Acetominophen]", "values": [{"measurement": "dose required for significant liver injury to occur", "setting": "[2]", "result": "10-15 grams"}]}, {"molecule": "NNC(=O)c1ccncc1", "note": "[INH, Isoniazid]", "values": [{"measurement": "persons in whom subclinical liver injury occurs", "setting": "[3]; persons taking INH", "result": "10-20%"}, {"measurement": "hepatotoxicity in slow acetylators", "setting": "[3]; slow acetylators", "result": "more hepatotoxic"}]}, {"molecule": "interferon alpha", "values": [{"measurement": "patients in whom viral infection is completely and permanently eliminated", "setting": "[4]", "result": "less than a quarter of patients"}, {"measurement": "patients receiving virtually no benefit", "setting": "[4]", "result": "Nearly half of patients"}]}]}
